Measurements published in paper PMC9365994, “Small molecules to regulate the GH/IGF1 axis by inhibiting the growth hormone receptor synthesis” (Frontiers in Endocrinology, 2022).

Key:
fos-GHRct = biological target: T1, fos-GHRct (Oryctolagus cuniculus, UniProt P19941); test: In vitro translation of fos-GHRct in HeLa cell cell-free system; type: biochemical; conditions: Figure 7B
T1 sequence (P19941 288-638): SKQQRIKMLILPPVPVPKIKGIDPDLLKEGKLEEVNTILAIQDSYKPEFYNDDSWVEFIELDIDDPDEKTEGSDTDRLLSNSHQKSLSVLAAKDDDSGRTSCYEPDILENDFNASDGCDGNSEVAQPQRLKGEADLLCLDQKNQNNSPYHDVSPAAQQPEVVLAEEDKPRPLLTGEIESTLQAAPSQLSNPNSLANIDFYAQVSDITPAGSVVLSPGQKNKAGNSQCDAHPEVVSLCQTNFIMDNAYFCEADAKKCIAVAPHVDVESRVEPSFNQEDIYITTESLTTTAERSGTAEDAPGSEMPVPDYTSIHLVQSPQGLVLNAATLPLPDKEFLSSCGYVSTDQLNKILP
Description: pcDNA3 vector DNA expressing Fos-zippered GHR cytosolic tails as described in ([32]) was used in a cell-free translation system, based on HeLa cell extract (Promega). Empty vector (pcDNA) was used as control. The blots were detected with an anti-GHR antibody raised in rabbits against GHR cytosolic tails.
To decide between these possibilities, we performed in vitro translation experiments.
This experiment represents the results of 6 independent repeats. […] In the right panel the 4 proline residues in box-1 were replaced by alanine residues. Empty vector (pcDNA) was used as control. The blots were detected with anti-GHR(B).

IGF1 = test: Serum IGF1 levels in xenografted mice; type: in vivo
Method: (§1) BM001, BM002, and BM003 were used in mice xenografted with MM231 breast cancer cells that are GH-responsive both for growth and drug resistance ([42]–[45]). The cells were orthotopically grafted into the inguinal mammary gland, and drug treatments started when tumors reached a volume of >50 mm^3. We used a treatment regimen of 3 injections per week (1 and 5 mg/kg) during 3 weeks (9 mice/group) ( Figure 6 ). Animals were killed when tumor volume exceeded 150 mm^3 or mice presented lung metastasis upon bioluminescence imaging measurements. […] Drug withdrawal effects were not studied until now. […] We observed no adverse side effects neither on appetite and behavior ([46]). […] We next assessed if the identified drugs indeed target the GH/IGF1 pathway and consequently, if they result in a decrease in liver weight and IGF1 levels, as observed in GHR knockout mice and Laron patients ([47]).

[1] = Liver weight, body weight and side effects in xenografted mice; type: in vivo
Method: as §1

[2] = Glucose and insulin levels in a dog experiment; type: in vivo; conditions: data not shown
[3] = test system: MDA-MM-231 (MM231) triple-negative human breast cancer line; test: Cell proliferation assay (CyQuant), MDA-MM-231; type: cell-based
Description: (§2) Based on these 2 compounds, Specs selected a new set of 109 structural analogues ( Supplementary Data 3 ). Twenty-one compounds tested positive in the primary screen protocol. […] ( Figures S12, S13 ). The 14 active drugs are depicted in Figure 4 . In the final test, the 5 best compounds (BM001-BM005) were screened for their […] effect on cancer cells. We used the triple-negative human breast cancer line, MDA-MM-231 (MM231) and the human colon cancer line Colo-205, and quantified DNA in vital cells ( Figure 5B ). Dose-response curves were made after 24, 48 & 72 h. The 5 drugs inhibited both cell lines relatively equal to the dose-response curves monitoring pGHR tails, pJak2, and pSTAT5 ( Figure S13 and Figure S14 ) with IC50 values varying from 30-200 nM ( Figure 5 ). […]
(§3) fos-GHRct phosphorylation (Fig. S12), a remarkable hit rate of […]. Next, we determined the dose-response effect (IC50) of these 21 new compounds on pY-levels of fos-GHRct. The compounds were divided in four categories: no dose-response effect (6), effect less than […]
(§4) plateaued at 200 units of relative fluorescence intensity. […]
(§5) protocol. […]
(§6) Next, we assessed the effect of the best 5 lead compounds (BM001-BM005) for the inhibition of cell proliferation/induction or cell death. […] With a standard green filter set the fluorescence from the nuclei is quantified in a multi-well plate spectrophotometer. […]

[4] = test system: Colo-205 human colon cancer line; test: Cell proliferation assay (CyQuant), Colo-205; type: cell-based
Description: as §2, §3, §4, §5, §6

SMILES	concentration inhibiting the synthesis of fos-GHRct (fos-GHRct)	reduction of serum IGF1 levels (IGF1; 3 injections per week, 3 weeks)	plasma IGF1 levels (in words) (IGF1; Figure 6D)	reduction of IGF1 (fold) (IGF1; measured at the end of the experiment)	Liver weight ([1]; 1 mg/kg)	Liver weight ([1]; 5 mg/kg)	reduction of liver weight ([1]; 3 injections per week, 3 weeks)	total body weights ([1]; 3 weeks treatment)	liver weight (in words) ([1]; Figure 6E)	glucose levels [2]	insulin levels [2]	effect on cell proliferation (in words) [3]	effect on cell proliferation (in words) [4]
Cc1nc(N)nc(N)c1/C=C/C1(c2ccc(C(F)(F)F)cc2)CC1 [BM001]	0.1 to 1 µM	73%	dose-dependent reduction	four-fold	1041 mg	1038 mg	16%	remained the same	dose-dependent reduction	did neither affect	did neither affect	–	–
N#CC[C@H](C1CCCC1)n1cc(-c2ncnc3[nH]ccc23)cn1 [Ruxolitinib, reference compound]	–	–	–	–	–	–	–	–	–	–	–	no effect	no effect
